Laboratory results from patent US11524966B1 (Valo Early Discovery, Inc., priority 2017, dated 2022).

What follows are molecules tested against T1, USP25 (USP25-His6, Boston Biochem E-546) (Homo sapiens, UniProt Q9UHP3) (assay: Ubiquitin-Rhodamine 110 Assay for USP25 Activity, Example A-2). Settings: Ubiquitin-Rhodamine 110 assay, Example A-2; read-out: USP25 A-2 IC50 range.
T1 construct: His6; purchased Boston Biochem E-546
T1 sequence (Q9UHP3 1-1055): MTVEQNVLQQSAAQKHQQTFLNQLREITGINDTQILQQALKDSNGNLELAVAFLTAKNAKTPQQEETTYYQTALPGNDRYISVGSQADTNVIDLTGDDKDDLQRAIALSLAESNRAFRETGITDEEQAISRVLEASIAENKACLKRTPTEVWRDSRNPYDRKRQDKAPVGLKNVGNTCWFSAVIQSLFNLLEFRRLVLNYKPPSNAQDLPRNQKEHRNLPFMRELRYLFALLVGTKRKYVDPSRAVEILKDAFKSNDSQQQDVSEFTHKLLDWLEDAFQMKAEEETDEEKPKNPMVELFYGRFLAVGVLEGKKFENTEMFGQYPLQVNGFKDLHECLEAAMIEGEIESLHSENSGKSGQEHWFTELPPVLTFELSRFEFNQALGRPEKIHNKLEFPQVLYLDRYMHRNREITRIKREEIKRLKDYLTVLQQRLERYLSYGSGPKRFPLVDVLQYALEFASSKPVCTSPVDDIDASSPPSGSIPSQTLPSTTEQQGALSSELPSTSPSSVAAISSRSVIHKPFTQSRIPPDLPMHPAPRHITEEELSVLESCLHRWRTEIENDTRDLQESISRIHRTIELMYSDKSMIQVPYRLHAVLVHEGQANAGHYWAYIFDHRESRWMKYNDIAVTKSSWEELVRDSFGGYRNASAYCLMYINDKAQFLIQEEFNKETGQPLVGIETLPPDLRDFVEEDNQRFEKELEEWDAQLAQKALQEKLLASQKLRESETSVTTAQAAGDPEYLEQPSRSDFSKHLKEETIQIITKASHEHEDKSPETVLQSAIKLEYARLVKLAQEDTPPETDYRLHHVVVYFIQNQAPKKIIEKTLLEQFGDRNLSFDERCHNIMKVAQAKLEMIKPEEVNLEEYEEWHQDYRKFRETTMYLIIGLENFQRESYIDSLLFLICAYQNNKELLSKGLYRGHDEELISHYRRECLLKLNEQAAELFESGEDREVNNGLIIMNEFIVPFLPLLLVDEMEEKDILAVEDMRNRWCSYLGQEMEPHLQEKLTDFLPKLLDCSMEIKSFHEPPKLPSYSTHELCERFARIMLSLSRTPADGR
Assay type: biochemical
Method: The assay was performed in a final volume of 9 μL in assay buffer containing 20 mM Tris-HCl (pH 8.0, (1M Tris-HCl, pH 8.0 solution; Corning 46-031-CM)), 3 mM BME (2-Mercaptoethanol; Sigma 63689-25ML-F), 0.03% BGG (0.22 μM filtered, Sigma, G7516-25G), and 0.01% Triton X-100 (Sigma, T9284-10L). Nanoliter quantities of 10-point, 3-fold serial dilution in DMSO was pre-dispensed into 1536 assay plates (Corning, #3724BC) for a final test concentration of 25 μM to 1.3 nM, top to lowest dose, respectively. Enzyme USP25, construct USP25-His6, (Boston Biochem E-546). Concentration and incubation times were optimized for the maximal signal-to-background while maintaining initial velocity conditions at a fixed substrate concentration. The final concentration of the enzyme in the assay was 75 pM. Final substrate (Ub-Rh110; Ubiquitin-Rhodamine 110, R&D Systems #U-555) concentration was 25 nM with [Ub-Rh110]<<Km. 3 μL of 2× enzyme was added to assay plates (pre-stamped with compound) preincubated with […] for 30 minutes and then 3 μL of 2×Ub-Rh110 was added to assay plates. Plates were incubated for 45 minutes at room temperature before addition of 3 μL of stop solution (final concentration of 10 mM citric acid (Sigma, 251275-500G)). Fluorescence was read on the Envision (Excitation at 485 nm and Emission at 535 nm; Perkin Elmer) or on the PheraSTAR (Excitation at 485 nm and Emission at 535 nm; BMG Labtech).
IC50 values were determined by curve fitting of the standard 4 parameter logistic fitting algorithm included in the Activity Base software package: IDBS XE Designer Model 205. Data is fitted using the Levenburg Marquardt algorithm.
Work on Cc1ccc2c(N)c(C(=O)NC3COc4cc(N5CCNCC5)ccc4C3C)sc2n1 (single isomer, unassigned) [Example 11-17] yielded an IC50 greater than 2000 nM.

Each molecule was assayed against T2, USP28 (USP28-5(1-1077)-TEV-6*His; LifeSensors) (Homo sapiens, UniProt Q96RU2) (assay: Ubiquitin-Rhodamine 110 Assay for USP28 Activity, Example A-1(b)). Settings: Ub-Rh110 assay, Example A-1(b).
T2 construct: construct USP28 (USP28-5(1-1077)-TEV-6*His; LifeSensors); TEV cleavage site (C); 6xHis (C); purchased LifeSensors
T2 sequence (Q96RU2 1-1077): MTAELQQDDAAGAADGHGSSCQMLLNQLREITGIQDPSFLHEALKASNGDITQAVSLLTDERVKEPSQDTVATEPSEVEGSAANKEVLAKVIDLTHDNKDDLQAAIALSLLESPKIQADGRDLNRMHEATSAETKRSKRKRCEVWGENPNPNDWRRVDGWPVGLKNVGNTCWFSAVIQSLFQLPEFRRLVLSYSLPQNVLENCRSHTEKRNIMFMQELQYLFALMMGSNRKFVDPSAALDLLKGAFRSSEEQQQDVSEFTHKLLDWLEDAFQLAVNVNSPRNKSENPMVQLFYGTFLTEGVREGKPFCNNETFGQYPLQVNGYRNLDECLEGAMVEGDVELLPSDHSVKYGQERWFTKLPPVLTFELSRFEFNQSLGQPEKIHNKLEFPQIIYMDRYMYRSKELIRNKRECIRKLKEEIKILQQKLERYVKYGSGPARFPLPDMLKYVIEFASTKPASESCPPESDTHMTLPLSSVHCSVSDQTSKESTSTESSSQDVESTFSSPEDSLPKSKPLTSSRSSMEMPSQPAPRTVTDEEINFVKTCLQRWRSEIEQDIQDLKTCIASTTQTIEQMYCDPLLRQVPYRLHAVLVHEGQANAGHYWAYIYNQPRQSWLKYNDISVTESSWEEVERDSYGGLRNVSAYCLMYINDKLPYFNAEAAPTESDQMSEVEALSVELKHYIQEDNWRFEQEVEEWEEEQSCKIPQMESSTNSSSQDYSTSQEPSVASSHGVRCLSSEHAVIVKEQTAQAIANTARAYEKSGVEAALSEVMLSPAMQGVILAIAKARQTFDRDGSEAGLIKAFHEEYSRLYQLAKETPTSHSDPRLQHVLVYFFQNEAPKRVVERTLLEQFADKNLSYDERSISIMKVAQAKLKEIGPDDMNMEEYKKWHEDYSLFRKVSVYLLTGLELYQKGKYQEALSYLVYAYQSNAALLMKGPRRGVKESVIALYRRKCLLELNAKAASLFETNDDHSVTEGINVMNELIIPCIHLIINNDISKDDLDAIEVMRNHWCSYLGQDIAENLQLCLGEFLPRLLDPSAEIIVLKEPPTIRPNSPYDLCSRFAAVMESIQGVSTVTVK
Assay type: biochemical
Method: Example A-1(b): Biochemical Assay: Ubiquitin-Rhodamine 110 Assay for USP28 Activity
Each assay was performed in a final volume of 20 μL in assay buffer containing 20 mM Tris-HCl (pH 8.0, (1M Tris-HCl, pH 8.0 solution; Corning 46-031-CM)), 2 mM CaCl2) (1M Calcium Chloride solution; Sigma #21114) 2 mM BME (2-Mercaptoethanol; Sigma 63689-25ML-F), 0.01% Prionex ([…] filtered, Sigma #G-0411), and 0.01% Triton X-100. Stock compound solutions were stored at −20° C. as 10 mM in DMSO. Up to 1 month prior to the assay, 2 mM test compounds were pre-dispensed into assay plates (Black, low volume; Corning #3820) and frozen at −20° C. Prestamped assay plates were allowed to come to room temperature on the day of the assay. For the screen, 100 nL of 2 mM was pre-dispensed for a final screening concentration of 10 μM (DMSO(fc)=0.5%). […] Plates were incubated stacked for 90 minutes at room temperature before fluorescence was read on the Envision (Excitation at 485 nm and Emission at 535 nm; Perkin Elmer) or on the PheraSTAR (Excitation at 485 nm and Emission at 535 nm; BMG Labtech).
For follow-up studies, each assay was performed in a final volume of 15 μL in assay buffer containing 20 mM Tris-HCl (pH 8.0, (1M Tris-HCl, pH 8.0 solution; Corning 46-031-CM)), 3 mM BME (2-Mercaptoethanol; Sigma 63689-25ML-F), 0.03% BGG (0.22 μM filtered, Sigma, G7516-25G), and 0.01% Triton X-100 (Sigma, T9284-10L). Nanoliter quantities of either an 8-point or 10-point, 3-fold serial dilution in DMSO was pre-dispensed into assay plates (Perkin Elmer, ProxiPlate-384 F Plus, #) for a final test concentration of either 25 μM to 11 nM or 25 μM to 1.3 nM, respectively. Enzyme USP28, construct USP28 (USP28-5(1-1077)-TEV-6*His; LifeSensors) concentration and incubation times were optimized for the maximal signal-to-background while maintaining initial velocity conditions at a fixed substrate concentration. The final concentration of the enzyme in the assay was 75 pM. Final substrate (Ub-Rh110; Ubiquitin-Rhodamine 110, R&D Systems #U-555) concentration was 25 nM with [Ub-Rh110]<<Km. 5 μL of 2× enzyme was added to assay plates (pre-stamped with compound) preincubated with USP28 for 30 minutes and then 5 μL of 2×Ub-Rh110 was added to assay plates. Plates were incubated stacked for 20 minutes at room temperature before 5 μL of stop solution was added (final concentration of 10 mM citric acid (Sigma, 251275-500G)). Fluorescence was read on the Envision (Excitation at 485 nm and Emission at 535 nm; Perkin Elmer) or on the PheraSTAR (Excitation at 485 nm and Emission at 535 nm; BMG Labtech).
For assay formats Example A-1(a), A-1(b), and A-2, data were reported as percent inhibition compared with control wells based on the following equation: % inh=1−((FLU−AveLow)/(AveHigh−AveLow)) where FLU=measured Fluorescence, AveLow=average Fluorescence of no enzyme control (n=16), and AveHigh=average Fluorescence of DMSO control (n=16). IC50 values were determined by curve fitting of the standard 4 parameter logistic fitting algorithm included in the Activity Base software package: IDBS XE Designer Model 205. Data is fitted using the Levenburg Marquardt algorithm.
In the case of Cc1ccc2c(N)c(C(=O)N[C@@H]3COc4cc(N5CCN[C@@H](C)[C@H]5C)ccc4C3)sc2n1 (single isomer, unassigned) [Example 1-8], the “USP28 A-1(b) IC50 range” value is reported as “++++ (0.001-0.05 μM)”.

Same assay, conditions: Ubiquitin-Rhodamine 110 assay, Example A-1(b)
For CN[C@H]1CCN(c2ccc3c(c2)CC[C@@H](NC(=O)c2sc4nc(C)cnc4c2N)C3)C1 (single isomer, unassigned) [Example 11-26], the “USP28 A-1(b) IC50 range” value was “+ (>2 μM)”. Cc1cnc2c(N)c(C(=O)N[C@@H]3CCc4cc(N5CCNCC5)ccc4C3)sc2n1 (single isomer, unassigned) [Example 11-20] was tested, and the “USP28 A-1(b) IC50 range” value was “+ (>2 μM)”. In the case of O=C(N[C@H]1COc2cc(N3CCNCC3)ccc2C1)c1cnn2c(Br)cccc12 [Example 457, (R)-7-bromo-N-(7-(piperazin-1-yl)chroman-3-yl)pyrazolo[1,5-a]pyridine-3-carboxamide], the “USP28 A-1(b) IC50 range” value is reported as “++ (0.2-2 μM)”. For Cc1ccc2c(N)c(C(=O)N[C@H]3COc4cc(N5CCNC6(COC6)C5)ccc4C3)sc2n1 [Example 4-1, (R)—N-(7-(2-oxa-5,8-diazaspiro[3.5]nonan-8-yl)chroman-3-yl)-3-amino-6-methylthieno[2,3-b]pyridine-2-carboxamide], the “USP28 A-1(b) IC50 range” value was “++ (0.2-2 μM)”. CN[C@H]1CCN(c2ccc3c(c2)CC[C@H](NC(=O)c2sc4nc(C)cnc4c2N)C3)C1 (single isomer, unassigned) [Example 11-25] was tested, and the “USP28 A-1(b) IC50 range” value was “++ (0.2-2 μM)”.

Same assay, conditions: Ubiquitin-Rhodamine 110 assay, format Example A-1(b)
For Cc1cnc2c(N)c(C(=O)N[C@H]3CCc4cc(N5C[C@H]6C[C@@H]5CN6)ccc4C3)sc2n1 (single isomer, unassigned) [Example 11-31], the “USP28 A-1(b) IC50 range” value was “++ (0.2-2 μM)”. In the case of Cc1ccc2c(N)c(C(=O)N[C@H]3CCc4cc(N5CC6CNCC(C5)O6)cc(F)c4C3)sc2n1 (single isomer, unassigned) [Example 11-39], the “USP28 A-1(b) IC50 range” value is reported as “++ (0.2-2 μM)”. With Cc1ccc2c(N)c(C(=O)N[C@@H]3CCc4c(C#N)c(N5CCNCC5)cc(F)c4C3)sc2n1 [Example 14-9, (R)-3-amino-N-(5-cyano-8-fluoro-6-(piperazin-1-yl)-1,2,3,4-tetrahydronaphthalen-2-yl)-6-methylthieno[2,3-b]pyridine-2-carboxamide] the “USP28 A-1(b) IC50 range” value was “+ (>2 μM)”. With Cc1ccc2c(N)c(C(=O)N[C@@H]3CCc4cc(N5CC6CNCC(C5)O6)cc(F)c4C3)sc2n1 (single isomer, unassigned) [Example 11-40] the “USP28 A-1(b) IC50 range” value was “++++ (0.001-0.05 μM)”. Cc1nc2sc(C(=O)N[C@@H]3CCc4cc(N5CCNCC5)ccc4C3)c(N)c2s1 (single isomer, unassigned) [Example 11-34] was tested, and the “USP28 A-1(b) IC50 range” value was “++ (0.2-2 μM)”.
